Measurements: PMC10653547, “Synergistic effect of two antimicrobial peptides, BP203 and MAP-0403 J-2 with conventional antibiotics against colistin-resistant Escherichia coli and Klebsiella pneumoniae clinical isolates” (PLOS ONE, 2023)
Values belong to the compound of their own block, whether it stands above or below them.

Columns and labels:
[1] = system: colistin-resistant E. coli clinical isolates; test: Disk diffusion antimicrobial susceptibility testing (CLSI); type: cell-based, Escherichia coli
Procedure: (§1) Ten non-duplicate clinical isolates of colistin-resistant E. coli (EC) and ten non-duplicate clinical isolates of colistin-resistant K. pneumoniae (KP) were obtained from the bacterial repository of the Division of Infectious Diseases and Tropical Medicine, Department of Medicine, Faculty of Medicine Siriraj Hospital, Mahidol University. The species identification was conducted through standard biochemical tests. Antimicrobial susceptibility testing was carried out using the disk diffusion method following CLSI guidelines. Additionally, the assessment of colistin resistance in all isolates was performed by broth microdilution following CLSI recommendations. […] The amino acid sequences of BP203 and MAP-0403 J-2 were retrieved from previous studies. These peptides are BP100 and MAP-0403 analogs, respectively. […] Antibiotic disks and defibrinated sheep blood were obtained from Oxoid (Basingstoke, UK). All culture media were purchased from Becton Dickinson (Frankin Lakes, NJ, USA). All chemicals were obtained from Sigma-Aldrich (St. Louis, MO, USA).

[2] = system: colistin-resistant K. pneumoniae clinical isolates; test: as above; type: cell-based, Klebsiella pneumoniae; settings: ten K. pneumoniae isolates; disk diffusion
Procedure: as §1

[3] = system: colistin-resistant E. coli clinical isolates; test: Checkerboard assay for synergy testing; type: cell-based, Escherichia coli
Procedure: (§2) The synergistic activities of various two-antimicrobial combinations against colistin-resistant E. coli and K. pneumoniae isolates were evaluated using the checkerboard assay, which was performed in 96-well plates. […] Two-fold serial dilutions of peptides and antibiotics were independently prepared in CAMHB. Afterward, a mixture of different concentrations of the antibiotics and peptides was added to the wells of the microplates. Antibiotics and peptides were also dispended alone in the first row and the first column, respectively. Bacterial inoculum was added to the 96-well plate to achieve a final concentration of 5 × 10^5 CFU/mL. Then, plates were incubated at 37 °C for 20–24 h. MICs were recorded as the minimum concentration of antimicrobial agents without bacterial growth. The interaction between the antimicrobials was determined by calculating the fractional inhibitory concentration index (FICI) according to the formula: FICI = FIC(drug A) + FIC(drug B), where FIC = the MIC of the drug when in the combination/MIC of drug tested individually.

[4] = system: colistin-resistant K. pneumoniae clinical isolates; test: Checkerboard assay for synergy testing; type: cell-based, Klebsiella pneumoniae
Procedure: as §2

[5] = isolate EC-01, checkerboard Rifampicin+BP203
[6] = isolate EC-01, checkerboard Rifampicin+MAP-0403 J-2
[7] = isolate EC-02, checkerboard Rifampicin+BP203
[8] = isolate EC-02, checkerboard Rifampicin+MAP-0403 J-2
[9] = isolate EC-03, checkerboard Rifampicin+BP203
[10] = isolate EC-03, checkerboard Rifampicin+MAP-0403 J-2
[11] = isolate EC-04, checkerboard Rifampicin+BP203
[12] = isolate EC-04, checkerboard Rifampicin+MAP-0403 J-2
[13] = isolate EC-05, checkerboard Rifampicin+BP203
[14] = isolate EC-05, checkerboard Rifampicin+MAP-0403 J-2
[15] = isolate EC-06, checkerboard Rifampicin+BP203
[16] = isolate EC-06, checkerboard Rifampicin+MAP-0403 J-2
[17] = isolate EC-07, checkerboard Rifampicin+BP203
[18] = isolate EC-07, checkerboard Rifampicin+MAP-0403 J-2
[19] = isolate EC-08, checkerboard Rifampicin+BP203
[20] = isolate EC-08, checkerboard Rifampicin+MAP-0403 J-2
[21] = isolate EC-09, checkerboard Rifampicin+BP203
[22] = isolate EC-09, checkerboard Rifampicin+MAP-0403 J-2
[23] = isolate EC-10, checkerboard Rifampicin+BP203
[24] = isolate EC-10, checkerboard Rifampicin+MAP-0403 J-2
[25] = isolate KP-01, checkerboard Rifampicin+BP203
[26] = isolate KP-01, checkerboard Rifampicin+MAP-0403 J-2
[27] = isolate KP-02, checkerboard Rifampicin+BP203
[28] = isolate KP-02, checkerboard Rifampicin+MAP-0403 J-2
[29] = isolate KP-03, checkerboard Rifampicin+BP203
[30] = isolate KP-03, checkerboard Rifampicin+MAP-0403 J-2
[31] = isolate KP-04, checkerboard Rifampicin+BP203
[32] = isolate KP-04, checkerboard Rifampicin+MAP-0403 J-2
[33] = isolate KP-05, checkerboard Rifampicin+BP203
[34] = isolate KP-05, checkerboard Rifampicin+MAP-0403 J-2
[35] = isolate KP-06, checkerboard Rifampicin+BP203
[36] = isolate KP-06, checkerboard Rifampicin+MAP-0403 J-2
[37] = isolate KP-07, checkerboard Rifampicin+BP203
[38] = isolate KP-07, checkerboard Rifampicin+MAP-0403 J-2
[39] = isolate KP-08, checkerboard Rifampicin+BP203
[40] = isolate KP-08, checkerboard Rifampicin+MAP-0403 J-2
[41] = isolate KP-09, checkerboard Rifampicin+BP203
[42] = isolate KP-09, checkerboard Rifampicin+MAP-0403 J-2
[43] = isolate KP-10, checkerboard Rifampicin+BP203
[44] = isolate KP-10, checkerboard Rifampicin+MAP-0403 J-2

Compound: C[C@H]1[C@H](NC(=O)/C(=N\OC(C)(C)C(=O)O)c2csc(N)n2)C(=O)N1S(=O)(=O)O [ATM, aztreonam]
- Interpreted results of disk diffusion ([1]; EC-01): R
- Interpreted results of disk diffusion ([1]; EC-02): R
- Interpreted results of disk diffusion ([1]; EC-03): R
- Interpreted results of disk diffusion ([1]; EC-04): R
- Interpreted results of disk diffusion ([1]; EC-05): S
- Interpreted results of disk diffusion ([1]; EC-06): I
- Interpreted results of disk diffusion ([1]; EC-07): R
- Interpreted results of disk diffusion ([1]; EC-08): S
- Interpreted results of disk diffusion ([1]; EC-09): R
- Interpreted results of disk diffusion ([1]; EC-10): R
- %Resistance ([1]; ten E. coli isolates, disk diffusion): 70%
- %Resistance [2]: 100%

- MIC alone [3, 5]: 2 µg/mL
- MIC combination [3, 5]: 1 µg/mL
- MIC alone [3, 6]: 4 µg/mL
- MIC combination [3, 6]: 0.5 µg/mL
- MIC alone [3, 7]: 4 µg/mL
- MIC combination [3, 7]: 0.25 µg/mL
- MIC alone [3, 8]: 8 µg/mL
- MIC combination [3, 8]: 2 µg/mL
- MIC alone [3, 9]: 4 µg/mL
- MIC combination [3, 9]: 1 µg/mL
- MIC alone [3, 10]: 8 µg/mL
- MIC combination [3, 10]: 0.25 µg/mL
- MIC alone [3, 11]: 4 µg/mL
- MIC combination [3, 11]: 1 µg/mL
- MIC alone [3, 12]: 16 µg/mL
- MIC combination [3, 12]: 4 µg/mL
- MIC alone [3, 13]: 2 µg/mL
- MIC combination [3, 13]: 0.5 µg/mL
- MIC alone [3, 14]: 8 µg/mL
- MIC combination [3, 14]: 2 µg/mL
- MIC alone [3, 15]: 4 µg/mL
- MIC combination [3, 15]: 1 µg/mL
- MIC alone [3, 16]: 8 µg/mL
- MIC combination [3, 16]: 1 µg/mL
- MIC alone [3, 17]: 4 µg/mL
- MIC combination [3, 17]: 1 µg/mL
- MIC alone [3, 18]: 16 µg/mL
- MIC combination [3, 18]: 4 µg/mL
- MIC alone [3, 19]: 2 µg/mL
- MIC combination [3, 19]: 0.5 µg/mL
- MIC alone [3, 20]: 8 µg/mL
- MIC combination [3, 20]: 0.25 µg/mL
- MIC alone [3, 21]: 4 µg/mL
- MIC combination [3, 21]: 2 µg/mL
- MIC alone [3, 22]: 8 µg/mL
- MIC combination [3, 22]: 0.5 µg/mL
- MIC alone [3, 23]: 2 µg/mL
- MIC combination [3, 23]: 0.5 µg/mL
- MIC alone [3, 24]: 8 µg/mL
- MIC combination [3, 24]: 0.5 µg/mL
- MIC alone [4, 25]: 512 µg/mL
- MIC combination [4, 25]: 16 µg/mL
- MIC alone [4, 26]: 256 µg/mL
- MIC combination [4, 26]: 16 µg/mL
- MIC alone [4, 27]: 512 µg/mL
- MIC combination [4, 27]: 4 µg/mL
- MIC alone [4, 28]: 256 µg/mL
- MIC combination [4, 28]: 16 µg/mL
- MIC alone [4, 29]: 32 µg/mL
- MIC combination [4, 29]: 4 µg/mL
- MIC alone [4, 30]: 32 µg/mL
- MIC combination [4, 30]: 2 µg/mL
- MIC alone [4, 31]: 128 µg/mL
- MIC combination [4, 31]: 4 µg/mL
- MIC alone [4, 32]: 256 µg/mL
- MIC combination [4, 32]: 32 µg/mL
- MIC alone [4, 33]: 16 µg/mL
- MIC combination [4, 33]: 1 µg/mL
- MIC alone [4, 34]: 16 µg/mL
- MIC combination [4, 34]: 1 µg/mL
- MIC alone [4, 35]: 512 µg/mL
- MIC combination [4, 35]: 8 µg/mL
- MIC alone [4, 36]: 256 µg/mL
- MIC combination [4, 36]: 32 µg/mL
- MIC alone [4, 37]: 32 µg/mL
- MIC combination [4, 37]: 4 µg/mL
- MIC alone [4, 38]: 32 µg/mL
- MIC combination [4, 38]: 2 µg/mL
- MIC alone [4, 39]: 16 µg/mL
- MIC combination [4, 39]: 4 µg/mL
- MIC alone [4, 40]: 16 µg/mL
- MIC combination [4, 40]: 2 µg/mL
- MIC alone [4, 41]: 512 µg/mL
- MIC combination [4, 41]: 32 µg/mL
- MIC alone [4, 42]: 256 µg/mL
- MIC combination [4, 42]: 128 µg/mL
- MIC alone [4, 43]: 32 µg/mL
- MIC combination [4, 43]: 4 µg/mL
- MIC alone [4, 44]: 32 µg/mL
- MIC combination [4, 44]: 2 µg/mL
Compound: CO[C@H]1/C=C/O[C@@]2(C)Oc3c(C)c(O)c4c(O)c(c(/C=N/N5CCN(C)CC5)c(O)c4c3C2=O)NC(=O)/C(C)=C\C=C\[C@H](C)[C@H](O)[C@@H](C)[C@@H](O)[C@@H](C)[C@H](OC(C)=O)[C@@H]1C [RIF, rifampicin]
